Literature values as cited in patent US9040535B2, “Crystalline molecular comlpexes of tadalafil” (THAR PHARMACEUTICALS, INC., priority 2009, dated 2015).

Assays:
[1] = n-octanol/buffer pH 7.4

For `CN1CC(=O)N2[C@H](c3ccc4c(c3)OCO4)c3[nH]c4ccccc4c3C[C@@H]2C1=O` [Tadalafil, (6R-trans)-6-(1,3-benzodioxol-5-yl)-2,3,6,7,12,12a-hexahydro-2methyl-pyrazino[1′,2′:1,6]pyrido[3,4-b]indole-1,4-dione], the “apparent partition coefficient (log P)app” value [1] is given as 1.7, the solubility in chloroform (chloroform) is given as “sparingly soluble” and the solubility in dioxane (dioxane) is given as “soluble”. The solubility in tetrahydrofuran (tetrahydrofuran) was “sparingly soluble” and the solubility in water (water) was “practically insoluble”.
